“Also recorded” adds a separate entry of the source. Like-named read-outs stand apart in the source and are kept apart here.
Key:
PC/RS cortical neurons = experiment: protection by anti-psychotic drugs against MK-801 (NRH)-induced vacuoles in rats; type: in vivo; conditions: Rattus norvegicus, Cortical neurone, ip
Description: Control animals received saline or DMSO, but no anti-psychotic drugs. Test animals were injected ip with an antipsychotic drug, listed above and in Table 2. Vacuoles were counted and data were processed as described in Example 1.

[1] = system: alpha-2 adrenergic receptor; conditions: for shift of clonidine blocking curve: preliminary, combined with clonidine (n=4), yohimbine 1 mg/kg ip or rauwolscine 5 mg/kg ip
Description: The brains were processed and the severity of damage assessed as described in Example 1. Results were analyzed by analysis of variance (ANOVA) where the dose of xylazine was the covariate and the presence of yohimbine served as the classification (treatment) variable. The homogeneity of slopes assumption was tested by determining whether there was a significant interaction between the covariate and the treatment variable.

α2 receptors = conditions: in words; cited from earlier work
sigma receptors = conditions: sigma and dopamine receptors; cited from earlier work
[2] = cited from earlier work
cerebral cortex = conditions: cited from earlier work
chick embryo retina = experiment: NMDA excitotoxicity in chick embryo retina segments, protection by MK-801 with or without alpha-2 agonist; type: cell-based; conditions: MK-801 500 nM; for cytopathology in retina incubated in NMDA plus MK-801, without or with α2 agonist: NMDA 40 μM, α2 agonist 500 nM to 100 μM, n=6 per condition
Description: These experiments were performed using segments of chick embryo retina. This is a widely used model for studying the production and prevention of excitotoxic phenomena, since it is simple and inexpensive. Chick tissue is used, since it tends to provide a better model of adult mammalian tissue than embryonic or juvenile mammalian tissue. Unlike newborn mammals, which are usually blind at birth, baby chicks can see quite well as soon as they emerge from the shell, and the NMDA receptors in chick retinal tissue are fully mature and functional.
In these tests, NMDA was introduced into the incubation medium in a concentration (40 μM) sufficient to produce a fully developed excitotoxic lesion within 30 min, displaying acute degeneration and necrosis of the majority of neurons in the inner layers of the retina.

[3] = system: pyramidal neurons in layers III and IV of the posterior cingulate (PC) and retrosplenial (RS) cortices; experiment: protection by alpha-2 adrenergic agonists against MK-801 neurotoxicity (vacuolated PC/RS neurons) in rats; conditions: for ED50: Rattus norvegicus, Pyramidal neuron, ip; for relative potency in preventing the neurotoxic reaction: ranking in words among the four α2 agonists
From the text: For each test agent, at least 17 rats were used and at least four doses tested.
The rats were sacrificed four hours after treatment, and brain tissue from the PC/RS region was histopathologically evaluated by previously described methods using double-blinded techniques (Olney et al 1991). The number of vacuolated PC and RS neurons were counted on each side of the brain at a rostrocaudal level immediately posterior to where the corpus callosum ceases decussating across the midline (approximately 5.6 mm caudal to Bregma; Paxinos & Watson, The Rat Brain in Stereotaxic Coordinates, 2d Ed., 1986).

[4] = system: neurotoxic side effects caused by NMDA antagonists such as PCP or MK-801; conditions: Olney et al 1991, U.S. Pat. No. 5,034,400; cited from earlier work
[5] = compared to clonidine; cited from earlier work
[6] = system: people addicted to cigarettes or opiates; conditions: cited from earlier work

CN1CCN(C2=Nc3cc(Cl)ccc3Nc3ccccc32)CC1 [Clozapine]
ED50 (PC/RS cortical neurons; protection against MK-801-induced vacuoles, confidence limits 25th & 75th percentiles in separate column, read-out: ED50): 3.2 mg/kg

COC(=O)[C@H]1[C@H]2C[C@H]3c4[nH]c5ccccc5c4CCN3C[C@H]2CC[C@@H]1O [rauwolscine]
shift of clonidine blocking curve [1]: A similar shifting of the curve to the right

Cc1cc2c(s1)Nc1ccccc1N=C2N1CCN(C)CC1 [Olanzapine]
ED50 (PC/RS cortical neurons): 1.4 mg/kg

CC(N)C(O)c1ccc(O)c(O)c1 (stereo not drawn) [alpha-methylnoradrenaline]
affinity/selectivity for α2 over α1 receptors (α2 receptors): activate α2 receptors with higher affinity than they have for α1 receptors

O=C(CCCN1CCC(O)(c2ccc(Cl)cc2)CC1)c1ccc(F)cc1 [Haloperidol]
ED50 (PC/RS cortical neurons): 5.1 mg/kg
receptor selectivity (sigma receptors): interact with both dopamine receptors and sigma receptors

CN1CCN(C2=Nc3ccccc3Oc3ccc(Cl)cc32)CC1 [Loxapine]
ED50 (PC/RS cortical neurons): 23.6 mg/kg
receptor selectivity (sigma receptors): interact with both dopamine receptors and sigma receptors

CNC1(c2ccccc2Cl)CCCCC1=O (stereo not drawn) [Ketamine]
duration of action ([2]; ketamine, human anesthesia): about 15 minutes
pathomorphological changes in brain (cerebral cortex; rat, in vivo): cause pathomorphological changes in the cerebral cortex of adult rats

C[C@]12N[C@H](Cc3ccccc31)c1ccccc12 [MK-801, (+)-5-methyl-10,11-dihydro-5H-di[a,d]-cyclohepten-5,10-imine]
protection against excitotoxic damage (chick embryo retina; regardless of α2 agonist): completely protected against excitotoxic damage
cytopathology in retina incubated in NMDA plus MK-801, without or with α2 agonist (chick embryo retina): no cytopathology
duration of action ([2]; in words): measured in days
mean number of vacuolated neurons per section ([3]; MK-801 0.5 mg/kg sc plus vehicle, 4 h, SEM, n=26): 223±10.5 vacuolated neurons per section
neurotoxic reaction to MK-801 ([3]; all control animals, MK-801 0.5 mg/kg sc): All control animals developed a neurotoxic reaction

Clc1ccc2nsnc2c1NC1=NCCN1 [tizanidine]
affinity/selectivity for α2 over α1 receptors (α2 receptors): activate α2 receptors with higher affinity than they have for α1 receptors

C[C@@H]1CN(CCCn2c3ccccc3c3ccccc32)C[C@H](C)N1 [Rimcazole]
ED50 (PC/RS cortical neurons): 17.8 mg/kg
receptor selectivity (sigma receptors): substantial affinity only for sigma receptors

CN1[C@@H]2CC[C@H]1C[C@@H](OC(c1ccccc1)c1ccccc1)C2 [benztropine]
block of neurotoxic side effects caused by NMDA antagonists [4]: can block the neurotoxic side effects caused by NMDA antagonists

COC(=O)[C@@H]1[C@H]2C[C@H]3c4[nH]c5ccccc5c4CCN3C[C@@H]2CC[C@@H]1O [yohimbine]
shift of clonidine blocking curve [1]: A similar shifting of the curve to the right
effect on xylazine's protection ([1]; yohimbine 1 mg/kg ip with various doses of xylazine, MK-801-treated rats, F(1,42)=9.40, p=0.004): significantly interfered with xylazine's protection
shift of xylazine blocking curve ([1]; yohimbine 1 mg/kg ip, MK-801-treated rats, FIG. 2): shifted the blocking curve to the right

OC(CCN1CCCCC1)(c1ccccc1)C1CC2C=CC1C2 (stereo not drawn) [biperiden]
block of neurotoxic side effects caused by NMDA antagonists [4]: can block the neurotoxic side effects caused by NMDA antagonists

CSc1ccc2c(c1)N(CCC1CCCCN1C)c1ccccc1S2 (stereo not drawn) [Thioridazine]
ED50 (PC/RS cortical neurons): 55.3 mg/kg
receptor selectivity (sigma receptors): interact with both dopamine receptors and sigma receptors

CN1CCN(C2=Nc3cc(F)ccc3Cc3ccccc32)CC1 [Fluperlapine]
ED50 (PC/RS cortical neurons): 2.3 mg/kg

C1COC(NC(C2CC2)C2CC2)=N1 [rilmenidine]
affinity/selectivity for α2 over α1 receptors (α2 receptors): activate α2 receptors with higher affinity than they have for α1 receptors

N=C(N)NC(=O)Cc1c(Cl)cccc1Cl [guanfacine]
affinity/selectivity for α2 over α1 receptors (α2 receptors): activate α2 receptors with higher affinity than they have for α1 receptors; also recorded: substantially higher selectivity for α2 receptors (and substantially lower affinity for α1 receptors) than clonidine
hypotensive side effects [5]: substantially lower activity in reducing blood pressure than clonidine

CCNC1(c2cccs2)CCCCC1=O (stereo not drawn) [Tiletamine]
pathomorphological changes in brain (cerebral cortex; adult rat, literature): cause pathomorphological changes in the cerebral cortex of adult rats

Clc1ccc2c(c1)C(N1CCNCC1)=Nc1ccccc1O2 [Amoxapine]
ED50 (PC/RS cortical neurons): 75 mg/kg

Cc1cccc(C(C)c2cnc[nH]2)c1C (stereo not drawn) [medetomidine]
affinity/selectivity for α2 over α1 receptors (α2 receptors): activate α2 receptors with higher affinity than they have for α1 receptors

N=C(N)N/N=C/c1c(Cl)cccc1Cl [Guanabenz]
affinity/selectivity for α2 over α1 receptors (α2 receptors): activate α2 receptors with higher affinity than they have for α1 receptors
ED50 ([3]; 4 h): 0.21 mg/kg
relative potency in preventing the neurotoxic reaction [3]: intermediate

Cc1cccc([C@H](C)c2cnc[nH]2)c1C [dexmedetomidine]
affinity/selectivity for α2 over α1 receptors (α2 receptors): activate α2 receptors with higher affinity than they have for α1 receptors; also recorded: substantially more selectivity for α2 receptors than for α1 receptors, when compared to clonidine; also recorded: substantially higher selectivity for α2 receptors (and substantially lower affinity for α1 receptors) than clonidine

CCN1CCc2nc(N)oc2CC1 [azepexole]
affinity/selectivity for α2 over α1 receptors (α2 receptors): activate α2 receptors with higher affinity than they have for α1 receptors; also recorded: substantially more selectivity for α2 receptors than for α1 receptors, when compared to clonidine; also recorded: substantially higher selectivity for α2 receptors (and substantially lower affinity for α1 receptors) than clonidine

C=CCC1(C(C)CCC)C(=O)NC(=O)NC1=O (stereo not drawn) [secobarbitol]
block of neurotoxic side effects caused by NMDA antagonists [4]: can block the neurotoxic side effects caused by NMDA antagonists

Clc1cccc(Cl)c1N=C1NCCN1 [Clonidine]
reduction of withdrawal symptoms [6]: help reduce withdrawal symptoms in some recovering addicts
cytopathology in retina incubated in NMDA plus MK-801, without or with α2 agonist (chick embryo retina): no cytopathology
affinity/selectivity for α2 over α1 receptors (α2 receptors): activate α2 receptors with higher affinity than they have for α1 receptors
ED50 ([3]; 4 h): 0.044 mg/kg
relative potency in preventing the neurotoxic reaction [3]: the most potent

Clc1cc(I)cc(Cl)c1NC1=NCCN1 [p-Iodoclonidine]
affinity/selectivity for α2 over α1 receptors (α2 receptors): activate α2 receptors with higher affinity than they have for α1 receptors
ED50 ([3]; 4 h): 1.3 mg/kg
relative potency in preventing the neurotoxic reaction [3]: intermediate

OC(CCN1CCCCC1)(c1ccccc1)C1CCCCC1 (stereo not drawn) [trihexyphenidyl]
block of neurotoxic side effects caused by NMDA antagonists [4]: can block the neurotoxic side effects caused by NMDA antagonists

Cc1cccc(C)c1N=C1NCCCS1 [Xylazine]
cytopathology in retina incubated in NMDA plus MK-801, without or with α2 agonist (chick embryo retina): no cytopathology
affinity/selectivity for α2 over α1 receptors (α2 receptors): activate α2 receptors with higher affinity than they have for α1 receptors
ED50 ([3]; 4 h): 2.4 mg/kg
relative potency in preventing the neurotoxic reaction [3]: the least potent

OC(CCN1CCCC1)(c1ccccc1)C1CCCCC1 (stereo not drawn) [procyclidine]
block of neurotoxic side effects caused by NMDA antagonists [4]: can block the neurotoxic side effects caused by NMDA antagonists

Cc1ccccc1NC(=N)Nc1ccccc1C [Di(2-tolyl)guanidine, di(2-tolyl)guanidine]
ED50 (PC/RS cortical neurons): 22.2 mg/kg

C[C@](N)(Cc1ccc(O)c(O)c1)C(=O)O [alpha-methyldopa]
affinity/selectivity for α2 over α1 receptors (α2 receptors): activate α2 receptors with higher affinity than they have for α1 receptors
